# Measured values as given in patent US4162305A, “Antibiotic XK-99 and process for production thereof” (Abbott Laboratories, priority 1977, dated 1979).
# Where two headings read alike, the source gives them in different places. Numbered stars: 1 amine (or outer) side, 2 acyl side, 3 side chain; on linkers, the order of the positions; unused ones are H or OH. Bridge positions count the residues as written; N and C are the ends. Square brackets hold non-standard residues; d marks the D form. Peptide text beside a SMILES is read from it. I, II: the chains in the order shown. Actinocin(9to1) = Cc1c2oc3c(C)ccc(C(=O)[*:1])c3nc-2c(C(=O)[*:2])c(N)c1=O; NMeV = CN[C@H](C(=O)O)C(C)C; Sar = CNCC(=O)O
# Experiments:
# Bacillus subtilis = test: Comparative antibacterial activity (MIC), agar dilution method, measured simultaneously; assay type: cell-based; details: for MIC: read-out: Antibacterial activity [B] (minimum inhibition concentration, MIC)
# Procedure: (§1) A comparative study of XK-99 with these antibiotics was conducted according to several procedures.
# (§2) ^1 Antibacterial activities (minimum inhibition concentration, MIC,
# (§3) γ/ml) of the individual antibiotics measured simultaneously
# according to agar dilution method against [A] Staphylococcus aureus and
# [B]Bacillus subtilis, and [C] ratio of [A] to
# ^2 Rf values of the individual antibiotics on paper chromatography, […]
# Staphylococcus aureus = test: as above; assay type: cell-based; details: for Antibacterial activity [C], ratio of [A] to [B]: MIC Staphylococcus aureus / MIC Bacillus subtilis; for MIC / Antibacterial activity [A] (minimum inhibition concentration, MIC): Staphylococcus aureus; for MIC: read-out: Antibacterial activity [A] (minimum inhibition concentration, MIC)
# Procedure: as §1, §2, §3
# according to agar dilution method against [A] Staphylococcus aureus and […]
# [1] = agar dilution method, measured simultaneously
Molecule,MIC (Bacillus subtilis) [µg/mL],"Antibacterial activity [C], ratio of [A] to [B] (Staphylococcus aureus)",MIC (Staphylococcus aureus) [µg/mL],MIC (Bacillus subtilis; [1]) [µg/mL],MIC (Staphylococcus aureus; [1]) [µg/mL],"Antibacterial activity [B] (minimum inhibition concentration, MIC) (Bacillus subtilis; [1]) [µg/mL]","Antibacterial activity [A] (minimum inhibition concentration, MIC) (Staphylococcus aureus; [1]) [µg/mL]"
"Cc1c2oc3c(C)ccc(C(=O)N[C@@H]4C(=O)N[C@H](C(C)C)C(=O)N5CCC[C@H]5C(=O)N(C)CC(=O)N(C)[C@@H](C(C)C)C(=O)O[C@@H]4C)c3nc-2c(C(=O)N[C@@H]2C(=O)N[C@H](C(C)C)C(=O)N3CCC[C@H]3C(=O)N(C)CC(=O)N(C)[C@@H](C(C)C)C(=O)O[C@@H]2C)c(N)c1=O [Actinomycin D] (I: T[dV]P[Sar][NMeV] / II: T[dV]P[Sar][NMeV]; ester I:1-I:C, II:1-II:C; linker I:N-II:N via Actinocin(9to1))",0.021,4,0.084,–,–,–,–
COc1cccc2c1C(=O)c1c(O)c3c(c(O)c1C2=O)C[C@@](O)(C(=O)CO)C[C@@H]3O[C@H]1C[C@H](N)[C@H](O)[C@H](C)O1 [Adriamycin],–,8,–,0.7,5.6,–,–
COc1cccc2c1C(=O)c1c(O)c3c(c(O)c1C2=O)C[C@@](O)(C(C)=O)C[C@@H]3O[C@H]1C[C@H](N)[C@H](O)[C@H](C)O1 [Daunomycin],–,4,–,0.7,2.8,–,–
CO[C@H]1/C=C/O[C@@]2(C)Oc3c(C)c(O)c4c(c3C2=O)C(=O)C=C(NC(=O)/C(C)=C\C=C\[C@H](C)[C@H](O)[C@@H](C)[C@@H](O)[C@@H](C)[C@H](OC(C)=O)[C@@H]1C)C4=O [Rifamycin S],–,< 0.05,–,–,–,0.09,< 0.0045
Acrasinomycin,–,4,–,–,–,0.17,0.68
Halomicin B,–,< 0.05,–,–,–,0.09,< 0.0045
